Values quoted from earlier work as cited in patent US6011041A, “Use of anhydrovinblastine” (priority 1996, dated 2000).

What was measured:
[1] = tested on: tumour; settings: alkaloids extracted from Vinca rosea; cited from earlier work
[2] = tested on: human rhabdosarcomas; settings: in vivo; cited from earlier work
[3] = humans; cited from earlier work

SMILES	antitumour activity [1]	activity in human rhabdosarcomas transplanted in nude mice [2]	dose limiting toxicity [3]
CC[C@]1(O)C[C@@H]2CN(CCc3c([nH]c4ccccc34)[C@@](C(=O)OC)(c3cc4c(cc3OC)N(C)[C@H]3[C@@](O)(C(=O)OC)[C@H](OC(C)=O)[C@]5(CC)C=CCN6CC[C@]43[C@@H]65)C2)C1 [vinblastine]	significant antitumour activity	not active in this system	anemia and leucopenia
CC[C@]12CN3CCc4c([nH]c5ccccc45)[C@@](C(=O)OC)(c4cc5c(cc4OC)N(C)[C@H]4[C@@](O)(C(=O)OC)[C@H](OC(C)=O)[C@]6(CC)C=CCN7CC[C@]54[C@@H]76)C[C@@H](C3)[C@H]1O2 [vinleurosine]	significant antitumour activity	–	–
